Experimental data published in patent USRE39530E1, “3-amino-3-arylpropan-1-ol-compounds, their preparation and use” (Gruenenthal GmbH, priority 1999, dated 2007).

How the values were obtained:
[1] = system: phenylquinone-induced writhing; experiment: Phenylquinone-induced writhing test on mice; format: in vivo; settings: male NMRI mice, 10 min before phenylquinone i.p., writhing counted 5 to 20 min after phenylquinone
Procedure: The analgesic activity was investigated on phenylquinone-induced writhing in mice (modified by I. C. Hendershot and J. Forsaith (1959) J. Pharmacol. Exp. Ther. 125, 237-240). Male NMRI mice weighing 25 to 30 g were used for this. Groups of 10 animals per dose of substance received 0.3 ml/mouse of a 0.02% aqueous solution of phenylquinone (phenylbenzoquinone), Sigma, Deisenhofen; preparation of the solution with addition of 5% ethanol and storage in a water bath at 45° C.) as an intraperitoneal administration 10 minutes after intravenous administration of the test substances. The animals were placed individually in observation cages. The number of pain-induced extension movements (so-called writhing reactions=straightening of the body with stretching out of the hind extremities) 5 to 20 minutes after the administration of phenylquinone was counted by means of a push-button counter. Animals which receive only physiological saline solution were also run as a control. All the substances were tested in the standard dosage of 10 mg/kg. The percentage inhibition (% inhibition) of the writhing reaction by a substance was calculated in accordance with the following equation: [formula] For some substances, the ED50 values with 95% confidence limits of the writhing reaction were calculated from the dose-dependent decrease in the writhing reactions compared with phenylquinone control groups investigated in parallel by means of regression analysis (evaluation program of Martens EDV Service, Eckental).

[2] = system: benzothiazepine bonding site of the L-type calcium channel; experiment: Bonding investigations on the L calcium channel, benzothiazepine bonding site (diltiazem bonding); format: binding; settings: rat cerebrocortex membranes; for Diltiazem bonding at 10 μM: percentage inhibition at 10 μM test substance, [3H]-cis-(+)-diltiazem 5 nM
Procedure: Benzothiazepine Bonding Site (diltiazem bonding)
The biological membrane material was isolated from the cerebrocortex of the rat. [^3H]-cis-(+)-Diltiazem (5 nM in the batch) was used as the ligand. Incubation for 20 minutes at 25° C. The radioactivity measured in the presence of (+)-diltiazem (10^−6 M in the batch) is defined as non-specific bonding. At the end of the incubation, the non-bonded content of radioactive ligand is removed with the aid of a filtration process over Whatman glass fiber GF/B membranes. After a washing process, the membranes are then measured on a β-counter. The method has been established in accordance with the publication of Schoemaker and Langer (H. Schoemaker and S. Z. Langer (1985) Eur. J. Pharmacol. 111, 273-277).
(§1) In addition to the percentage inhibition of the test systems at fixed test substance concentrations (10 μM in the batch), dose-dependencies were investigated. In this investigation, IC50 values are obtained, and these can be converted by the “Cheng-Prusoff equation” (Y. C. Cheng and W. H. Prusoff (1973) Biochem. Pharmacol. 22, 3099-3108) into inhibitor constants (Ki). The IC50 values were obtained with the aid of the “Figure P” computer program (version 6.0, Biosoft, Cambridge, England). Km values were calculated by the method of Lineweaver and Burk (H. Lineweaver and D. Burk (1934) J. Am. Chem. Soc. 56, 658-666). The “Ligand” computer program (version 4, Biosoft, England) is used to obtain KD values.

[3] = system: bonding site 2 of the sodium channel (BTX bonding site); experiment: Bonding investigations on the sodium channel, bonding site 2 (BTX bonding); format: binding; settings: rat cerebrocortex synaptosomes; for BTX bonding at 10 μM: percentage inhibition at 10 μM test substance, [3H]-batrachotoxin A20 α-benzoate 10 nM
Procedure: Bonding Site 2 (BTX bonding)
Bonding site 2 of the sodium channel is the so-called batrachotoxin (BTX) bonding site. [^3H]-Batrachotoxin A20 α-benzoate (10 nM in the batch) was employed as the ligand. These ion channel particles (synaptosomes) were concentrated out of the rat cerebrocortex by the method of Gray and Whittaker (E. G. Gray and V. P. Whittaker (1962) J. Anat. 76, 79-88). The radioactivity measured in the presence of veratridin (0.3 mM in the batch) is defined as non-specific bonding. Incubation at 37° C. for 120 min. The assay conditions were implemented in accordance with the publication of Pauwels, Leysen and Laduron (P. J. Pauwels, J. E. Leysen and P. M. Laduron (1986) Eur. J. Pharmacol. 124, 291-298).
as §1

Cc1ccccc1COC1CCCCC1C(c1ccccc1)N(C)C.Cl (stereo not shown) [Example 1, Dimethyl-{[2-(2-methyl-benzyloxy)cyclohexyl]phenylmethyl}-amine hydrochloride]
% Inhibition of the writhing reaction at 10 mg/kg intravenously [1]: 85% | Diltiazem bonding at 10 μM [2]: 82% | BTX bonding at 10 μM [3]: 99%

CN(C)C(c1ccccc1)C1CCCCC1OCc1cccc(F)c1.Cl (stereo not shown) [Example 5, {[2-(3-Fluorobenzyloxy)cyclohexyl]-phenylmethyl}dimethylamine hydrochloride]
% Inhibition of the writhing reaction at 10 mg/kg intravenously [1]: 74% | Diltiazem bonding at 10 μM [2]: 89% | BTX bonding at 10 μM [3]: 98%

CN(C)C(c1ccccc1Cl)C1CCCCC1OCc1ccccc1Cl.Cl (stereo not shown) [Example 4, {[2-(2-Chlorobenzyloxy)cyclohexyl]-(2-chlorophenyl)methyl}-dimethylamine hydrochloride]
% Inhibition of the writhing reaction at 10 mg/kg intravenously [1]: 32% | Diltiazem bonding at 10 μM [2]: 73% | BTX bonding at 10 μM [3]: 92%

CN(C)C(c1ccccc1)C1CCCCC1OCc1ccc(F)cc1.Cl (stereo not shown) [Example 6, {[2-(4-Fluorobenzyloxy)cyclohexyl]-phenylmethyl}dimethylamine hydrochloride]
% Inhibition of the writhing reaction at 10 mg/kg intravenously [1]: 68% | Diltiazem bonding at 10 μM [2]: 86% | BTX bonding at 10 μM [3]: 97%

CN(C)C(c1ccccc1)C1CCCCC1OC(=O)c1ccc(C(F)(F)F)cc1.Cl (stereo not shown) [Example 2, [2-(Dimethylaminophenylmethyl)cyclohexyl]-4-trifluoromethylbenzoate hydrochloride]
% Inhibition of the writhing reaction at 10 mg/kg intravenously [1]: 48% | BTX bonding at 10 μM [3]: 98%

COc1ccc(C(=O)OC2CCCCC2C(c2ccccc2)N(C)C)cc1.Cl (stereo not shown) [Example 3, [2-(Dimethylaminophenylmethyl)cyclohexyl]4-methoxybenzoate hydrochloride]
% Inhibition of the writhing reaction at 10 mg/kg intravenously [1]: 43% | Diltiazem bonding at 10 μM [2]: 65% | BTX bonding at 10 μM [3]: 89%

[^3H]-cis-(+)-Diltiazem [reference compound]
Kd ([2]; radioligand, means±SEM, N=3, read-out: KD value for this high-affinity bonding site): 0.0041 ± 0.00075 µM

[^3H]-Batrachotoxin A20 α-benzoate [reference compound]
Kd ([3]; radioligand, means±SEM, N=3, read-out: KD value for this bonding site): 0.0246 ± 0.00156 µM
